Laboratory results as given in US20050154230A1, “Urea derivatives” (Bayer HealthCare AG, priority 2001, published 2005).
Like-named read-outs stand apart in the source and are kept apart here.

What was measured:
[1] = target: T1, human VR1 (Homo sapiens, UniProt Q8NER1); test: Capsaicin-induced Ca2+ influx in the human VR1-transfected CHO cell line (Assay 1); format: cell-based
T1 construct: expressed in transfected cells
In short: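 CHO cells expressing human VR1 with an aequorin reporter were treated with compound or vehicle for 20 min at 25° C. Capsaicin-induced Ca^2+ influx was then measured on an FDSS-3000. Integral R was calculated and compared with controls.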

[2] = human VR1-CHOluc9aeq cells, 10 nM capsaicin, compound purity about 40 to 90%, read-out: hVR1 class
[3] = human VR1-CHOluc9aeq cells, 10 nM capsaicin, compound purity about 40 to 90%, read-out: Activity grade

T1 sequence (Q8NER1 whole entry): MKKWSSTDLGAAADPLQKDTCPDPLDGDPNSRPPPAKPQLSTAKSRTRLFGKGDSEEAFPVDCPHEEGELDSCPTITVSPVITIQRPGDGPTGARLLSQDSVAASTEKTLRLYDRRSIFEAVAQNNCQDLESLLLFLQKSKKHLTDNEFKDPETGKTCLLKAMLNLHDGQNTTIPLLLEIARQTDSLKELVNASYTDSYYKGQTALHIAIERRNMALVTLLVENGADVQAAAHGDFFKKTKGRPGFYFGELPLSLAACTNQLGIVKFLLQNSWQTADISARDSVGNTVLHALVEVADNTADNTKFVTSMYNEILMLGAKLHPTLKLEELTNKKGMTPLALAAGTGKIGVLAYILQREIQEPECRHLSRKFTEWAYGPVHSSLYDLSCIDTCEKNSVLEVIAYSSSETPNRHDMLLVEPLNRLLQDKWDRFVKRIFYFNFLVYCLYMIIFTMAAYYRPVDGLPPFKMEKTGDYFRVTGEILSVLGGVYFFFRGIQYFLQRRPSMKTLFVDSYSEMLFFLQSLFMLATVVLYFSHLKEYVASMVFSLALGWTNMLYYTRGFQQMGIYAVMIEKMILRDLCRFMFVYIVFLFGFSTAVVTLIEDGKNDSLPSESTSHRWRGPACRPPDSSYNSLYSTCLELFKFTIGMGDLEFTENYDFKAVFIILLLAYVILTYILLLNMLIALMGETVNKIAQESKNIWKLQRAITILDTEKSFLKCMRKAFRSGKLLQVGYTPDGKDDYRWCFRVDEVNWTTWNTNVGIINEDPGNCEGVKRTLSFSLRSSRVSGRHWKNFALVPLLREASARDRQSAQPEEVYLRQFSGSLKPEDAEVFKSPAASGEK

Row | SMILES | IC50 [1, 2] [nM] | melting point | IC50 [1] [nM] | IC50 [1, 3] [nM]
1 | O=C(Nc1cccc(OCc2ccccc2)c1)Nc1ccccc1CCO [Example 174] | < 100 | 146 to 148 °C |  | 
2 | O=C(Nc1ccc(F)cc1)Nc1ccccc1CCO [Example 131] | 500 to 1000 | 183 °C |  | 
3 | O=C(Nc1cccc(-c2ccc(OC(F)(F)F)cc2)c1)Nc1ccccc1CCO [Example 240] | < 100 | 184 °C |  | 
4 | Cc1ccc(NC(=O)Nc2ccccc2CCO)c(C)c1 [Example 133] | 500 to 1000 | 181 °C |  | 
5 | N#Cc1ccc(-c2ccc(NC(=O)Nc3ccccc3CCO)cc2)cc1 [Example 161] | 500 to 1000 | 213 to 215 °C |  | 
6 | CC(C)c1ccc(NC(=O)Nc2ccccc2CCO)cc1 [Example 101] | 100 to 500 | 149 to 150 °C |  | 
7 | O=C(Nc1cccc(-c2ccccc2F)c1)Nc1ccccc1CCO [Example 210] | < 100 | 171 to 172 °C |  | 
8 | O=C(Nc1cccc(-c2cccc(OC(F)(F)F)c2)c1)Nc1ccccc1CCO [Example 239] | < 100 | 166 °C |  | 
9 | COc1ccccc1NC(=O)Nc1ccccc1CCO [Example 134] | 500 to 1000 | 154 °C |  | 
10 | Cc1ccc(CNC(=O)Nc2ccccc2CCO)cc1 [Example 125] | 500 to 1000 | 181 to 183 °C |  | 
11 | O=C(Nc1ccc(-c2ccccc2)c(Cl)c1)Nc1ccccc1CCO [Example 244] | 100 to 500 | 178 °C |  | 
12 | CSc1ccc(-c2cccc(NC(=O)Nc3ccccc3CCO)c2)cc1 [Example 206] | < 100 | 191 °C |  | 
13 | COc1cccc(-c2cccc(NC(=O)Nc3ccccc3CCO)c2)c1 [Example 242] | < 100 | 163 °C |  | 
14 | O=C(Nc1ccc(Oc2ccccc2)cc1)Nc1ccccc1CCO [Example 99] | < 100 | 133 to 135 °C |  | 
15 | Cc1cc(C)c(NC(=O)Nc2ccccc2CCO)c(C)c1 [Example 115] | 500 to 1000 | 243 °C |  | 
16 | COc1cc(CNC(=O)Nc2c(C)cccc2C)ccc1O [Example 60] | 500 to 1000 | 211 °C |  | 
17 | O=C(Nc1cccc(-c2cccs2)c1)Nc1ccccc1CCO [Example 203] | < 100 | 195 °C |  | 
18 | O=C(Nc1ccc(Br)cc1)Nc1ccccc1CCO [Example 114] | 500 to 1000 | 208 °C |  | 
19 | O=C(Nc1ccc(Br)c(C(F)(F)F)c1)Nc1ccccc1CCO [Example 185] | < 100 | 161 to 164 °C |  | 
20 | O=C(NCc1ccc(Br)cc1)Nc1ccccc1CCO [Example 103] | 100 to 500 | 198 to 200 °C |  | 
21 | O=C(Nc1cccc(-c2ccc([N+](=O)[O-])cc2)c1)Nc1ccccc1CCO [Example 229] | < 100 | 197 to 198 °C |  | 
22 | COc1cccc(OC)c1-c1cccc(NC(=O)Nc2ccccc2CCO)c1 [Example 231] | 500 to 1000 | 180 to 181 °C |  | 
23 | O=C(NCc1ccccc1Cl)Nc1ccccc1CCO [Example 126] | 500 to 1000 | 183 to 185 °C |  | 
24 | COc1cc(CNC(=O)Nc2ccc(Br)cc2)ccc1O [Example 63] | 100 to 500 | 203 °C |  | 

Row | SMILES | IC50 [1, 2] [nM] | melting point | IC50 [1] [nM] | IC50 [1, 3] [nM]
25 | O=C(Nc1cccc(C(F)(F)F)c1)Nc1ccccc1CCO [Example 107] | 100 to 500 | 173 to 175 °C |  | 
26 | O=C(Nc1cccc(-c2ccc(Cl)c(F)c2)c1)Nc1ccccc1CCO [Example 249] | < 100 | 180 °C |  | 
27 | Cc1ccc(-c2cccc(NC(=O)Nc3ccccc3CCO)c2)cc1Cl [Example 248] | < 100 | 194 °C |  | 
28 | O=C(Nc1ccc(Cl)c(C(F)(F)F)c1)Nc1ccccc1CCO [Example 98] | < 100 | 175 to 177 °C |  | 
29 | Cc1ccc2cc(NC(=O)Nc3ccccc3CCO)ccc2n1 [Example 165] | 500 to 1000 | 207 °C |  | 
30 | O=C(NCc1cccc(F)c1)Nc1ccccc1CCO [Example 120] | 500 to 1000 | 160 to 162 °C |  | 
31 | COc1ccc(Cl)cc1-c1cccc(NC(=O)Nc2ccccc2CCO)c1 [Example 228] | < 100 | 126 to 129 °C |  | 
32 | O=C(Nc1ccc(F)cc1F)Nc1ccccc1CCO [Example 145] | 500 to 1000 | 174 to 176 °C (dec.) |  | 
33 | O=C(Nc1cccc(-c2ccc(Cl)cc2Cl)c1)Nc1ccccc1CCO [Example 223] | < 100 | 166 °C |  | 
34 | CCOC(=O)c1cccc(NC(=O)Nc2ccccc2CCO)c1 [Example 100] | 100 to 500 | 152 to 153 °C |  | 
35 | O=C(Nc1ccccc1CCO)Nc1cccc(F)c1F [Example 182] | 500 to 1000 | 159 to 161 °C |  | 
36 | O=C(Nc1cccc(Cl)c1)Nc1ccccc1CCO [Example 105] | 500 to 1000 | 188 to 190 °C |  | 
37 | O=C(Nc1ccc(-c2ccc(F)cc2)cc1)Nc1ccccc1CCO [Example 192] | 100 to 500 | 197 °C |  | 
38 | O=C(Nc1ccccc1Cl)Nc1ccccc1CCO [Example 104] | 500 to 1000 | 173 to 175 °C |  | 
39 | O=C(Nc1ccc2[nH]ncc2c1)Nc1ccccc1CCO [Example 221] | 500 to 1000 | 234 to 236 °C |  | 
40 | O=C(Nc1ccccc1CCO)Nc1cccc2ccc(O)cc12 [Example 166] | 500 to 1000 | 212 °C |  | 
41 | O=C(Nc1ccc(F)c(Cl)c1)Nc1ccccc1CCO [Example 190] | 100 to 500 | 193 to 194 °C |  | 
42 | COc1ccc(OC)c(NC(=O)Nc2ccccc2CCO)c1 [Example 151] | 500 to 1000 | 157 to 158 °C |  | 
43 | Cc1ccc(NC(=O)Nc2ccccc2CCO)cc1F [Example 181] | 500 to 1000 | 184 to 186 °C |  | 
44 | Cc1ccc(Oc2ccc(NC(=O)Nc3ccccc3CCO)cc2)cc1 [Example 176] | < 100 | 164 to 168 °C (dec.) |  | 
45 | COc1cc(-c2cccc(NC(=O)Nc3ccccc3CCO)c2)cc(OC)c1OC [Example 237] | 100 to 500 | 81 to 83 °C |  | 
46 | COc1cc(CNC(=O)Nc2ccccc2OC)ccc1O [Example 57] | 500 to 1000 | 144 °C |  | 
47 | O=C(Nc1ccc(Cl)c([N+](=O)[O-])c1)Nc1ccccc1CCO [Example 113] | 100 to 500 | 170 °C |  | 
48 | O=C(Nc1ccc(Cl)c(-c2ccc(Cl)cc2)c1)Nc1ccccc1CCO [Example 218] | < 100 | 170 to 172 °C |  | 

Row | SMILES | IC50 [1, 2] [nM] | melting point | IC50 [1] [nM] | IC50 [1, 3] [nM]
49 | COc1ccc(NC(=O)Nc2ccccc2CCO)c(OC)c1 [Example 150] | 500 to 1000 | 189 to 190 °C |  | 
50 | O=C(Nc1ccccc1CCO)Nc1cccc2ccccc12 [Example 149] | 500 to 1000 | 188 to 191 °C (dec.) |  | 
51 | COc1cc(CNC(=O)Nc2ccc(C(C)C)cc2)ccc1O [Example 1-1, N-(4-hydroxy-3-methoxybenzyl)-N′-(4-isopropylphenyl)urea] |  | 156 °C | < 100 | 
52 | O=C(Nc1cccc(-c2ccc(F)c(Cl)c2)c1)Nc1ccccc1CCO [Example 215] | < 100 | 176 °C |  | 
53 | COc1cc(CNC(=O)Nc2ccc(Cl)c([N+](=O)[O-])c2)ccc1O [Example 64] | 100 to 500 | 180 °C |  | 
54 | COc1cc(CNC(=O)Nc2cccc3ccccc23)ccc1O [Example 70] |  | 149 °C | < 100 | 
55 | O=C(Nc1ccc(Cl)c(Cl)c1)Nc1ccccc1CCO [Example 1-2, N-(3,4-dichlorophenyl)-N′-[2-(2-hydroxyethyl)phenyl]urea] |  | 188 to 190 °C |  | < 100
56 | O=C(Nc1ccccc1CCO)Nc1ccccc1[N+](=O)[O-] [Example 147] | 500 to 1000 | 112 to 114 °C |  | 
57 | COc1cc(CNC(=O)Nc2ccc(C)cc2C)ccc1O [Example 62] | 500 to 1000 | 184 °C |  | 
58 | O=C(Nc1ccc(Cl)c(C(F)(F)F)c1)Nc1cccc(-c2ccccc2)c1CCO [Example 257] | 100 to 500 | 173 °C |  | 
59 | O=C(Nc1cc(C(F)(F)F)ccc1F)Nc1ccccc1CCO [Example 189] | 500 to 1000 | 150 to 152 °C |  | 
60 | COc1ccc(F)cc1-c1cccc(NC(=O)Nc2ccccc2CCO)c1 [Example 235] | < 100 | 158 to 160 °C |  | 
61 | COc1cc(CNC(=O)Nc2ccc(Cl)cc2)ccc1O [Example 83] | < 100 | 210 °C |  | 
62 | Cc1ccc(NC(=O)Nc2ccccc2CCO)cc1Cl [Example 148] | 500 to 1000 | 195 to 196 °C |  | 
63 | COc1ccc2c(c1)C(NC(=O)Nc1ccc(F)cc1)CCC2 (centres unmarked) [Example 53] | 500 to 1000 | 177.5 °C |  | 
64 | CN(C)c1ccc(NC(=O)Nc2ccccc2CCO)cc1 [Example 122] | 500 to 1000 | 187 to 188 °C |  | 
65 | Cc1ccccc1Oc1ccccc1NC(=O)Nc1ccccc1CCO [Example 175] | 500 to 1000 | 170 to 172 °C |  | 
66 | O=C(Nc1cccc(-c2ccccc2C(F)(F)F)c1)Nc1ccccc1CCO [Example 241] | < 100 | 153 °C |  | 
67 | COc1cc(NC(=O)Nc2ccccc2CCO)cc(C(F)(F)F)c1 [Example 188] | < 100 | 161 to 162 °C |  | 
68 | CSc1ccc(NC(=O)Nc2ccccc2CCO)cc1 [Example 156] | 500 to 1000 | 176 to 177 °C |  | 
69 | O=C(Nc1ccccc1CCO)Nc1ccccc1Oc1ccccc1 [Example 160] | 500 to 1000 | 190 to 191 °C |  | 
70 | O=C(Nc1cccc(-c2ccccc2)c1)Nc1ccccc1CCO [Example 3-1, N-(1,1′-biphenyl-3-yl)-N′-[2-(2-hydroxyethyl)phenyl]urea] |  | 196 to 198 °C |  | < 100
